A word on the IC50: it is the midpoint of a concentration-inhibition curve.

The subject of experiment [1] is HBeAg level (surrogate marker for cccDNA) in HepDES19 cells. Put plainly: Engineered HepDES19 primary screen assay (HBeAg as surrogate marker for cccDNA). In kind it is cell-based, HBV. From the text:
The assay was employed to screen for novel cccDNA inhibitors. HepDES19 is a cccDNA-producing cell line. In this cell line, HBeAg in the cell culture supernatant as surrogate marker, as HBeAg production depends on cccDNA level and activity. HepDES19 is an engineered cell line which contains a 1.1 unit length HBV genome, and pgRNA transcription from the transgene is controlled by Tetracycline (Tet). In the absence of Tet, pgRNA transcription will be induced, but HBV e antigen (HBeAg) could not be produced from this pgRNA due to very short leader sequence before the HBeAg start codon and the start codon is disrupted. Only after cccDNA is formed, the missing leader sequence and start codon mutation would be restored from the 3′-terminal redundancy of pgRNA, and then HBeAg could be synthesized. Therefore, HBeAg could be used as a surrogate marker for cccDNA (Zhou, T. et al., Antiviral Res. (2006), 72(2), 116-124; Guo, H. et al., J. Virol. (2007), 81(22), 12472-12484).
HepDES19 cells were seeded at 2×10^6 cells per T150 flask and cultured with the culture medium (Dulbecco's Modified Eagle Medium: Nutrient Mixture F-12 [DMEM-F12, Gibco Cat. 11320-82], 10% Fetal Bovine Serum [FBS, Clontech Cat. 631101], 0.1 mM Non-Essential Amino Acids Solution [NEAA, Gibco Cat. 11140-050], 50 μg/mL Penicillin-Streptomycin [PS, Invitrogen Cat. 15140-163], 500 μg/mL Geneticin [G418, Invitrogen Cat. 10131-027]) containing 3 μg/mL Tet (Sigma, Cat. 87128) for 5 days. Cells were then seeded at 4×10^6 cells per T150 in the same culture medium as described above in the absence of Tet for 8 days. Cells were then harvested and frozen at density of 2×10^6 cells per mL. For compound testing, the frozen cells were thawed and seeded into 96-well plates at a density of 6×10^4 cells per well. At 24 hrs after seeding, half log serial dilutions of compounds made with Dimethyl sulfoxide (DMSO, Sigma, Cat. D2650) were further diluted with the same culture medium as described above before they were added to the cells to reach desired final compound concentrations and 1% DMSO concentration. Plates were then incubated at 37° C. for another 5 days before measurement of HBeAg level and cell viability. Intracellular HBeAg level were measured with enzyme-linked immunosorbent assay (ELISA) kit (Shanghai Kehua Diagnostic Medical Products Co., Ltd). Cell viability was assessed using Cell Counting Kit-8 (Donjindo, Cat. CK04-20). IC50 values were derived from the dose-response curve using 4 parameter logistic curve fit method.
The compounds of the present invention were tested for their capacity to inhibit extracellular HBeAg level as described herein.

For experiment [2], the system named is HBV in primary human hepatocytes (PHH). Put plainly: Cryopreserved primary human hepatocytes (PHH) HBV infection assay. It is filed as cell-based. Particulars: HBV-infected cryopreserved PHH, 9 days post-compound treatment, extracellular HBsAg by CLIA, read-out: HBsAg IC50. The protocol: This assay is used to confirm the anti-HBV effect of the compounds in HBV PHH infection assay. Cryopreserved PHH (BioreclamationIVT, Lot YJM) was thawed at 37° C. and gently transferred into pre-warmed InVitroGRO HT medium (BioreclamationIVT, Cat. S03317). The mixture was centrifuged at 70 relative centrifugal force (RCF) for 3 minutes at RT, and the supernatant was discarded. Pre-warmed InVitroGRO CP medium (BioreclamationIVT, Cat #S03316) was added to the cell pellet to gently re-suspend cells. The cells were seeded at the density of 5.8×10^4 cells per well to collagen I coated 96-well plate (Gibco, Cat. A1142803) with the InVitroGRO CP medium. All plates were incubated at 37° C. with 5% CO2 and 85% humidity.
At 20 hours after plating, the medium was changed to PHH culture medium (Dulbecco's Modified Eagle Medium (DMEM)/F12 (1:1) (Gibco, Cat. 11320-033), 10% fetal bovine serum (Gibco Cat. 10099141), 100 U/mL penicillin, 100 μg/mL streptomycin (Gibco, Cat. 151401-122), 5 ng/mL human epidermal growth factor (Invitrogen Cat. PHG0311L), 20 ng/mL dexamethasone (Sigma, Cat. D4902) and 250 ng/mL human recombinant insulin (Gibco, Cat. 12585-014)). And the cells were incubated at 37° C. with 5% CO2 and 85% humidity for 4 hours. The medium was then changed to pre-warmed PHH culture medium containing 4% polyethylene glycol (PEG) MW8000 (Sigma, Cat. P1458-50ML) and 1% DMSO (Sigma, Cat. D2650). 5.8×10^6 genomic equivalents of HBV were added into the medium.
At 24 hours post-infection, the cells were gently washed with PBS and refreshed with PHH culture medium supplemented with 1% DMSO, and 0.25 mg/mL Matrix gel (Corning, Cat. 356237) at 200 μL per well. All plates were immediately placed in at 37° C. CO2 incubator.
24 hours later, serial dilutions of compounds made with DMSO were further diluted with the same culture medium (PHH culture medium supplemented with 1% DMSO and 0.25 mg/mL Matrix gel as described above) before they were added to the cells to reach desired final compound concentrations and 1% DMSO concentration. The medium containing the compounds were refreshed every three days.
At 9 days post-compound treatment, extracellular HBsAg level were measured with Chemiluminescence Immuno Assay (CLIA) kit (Autobio, HBsAg Quantitative CLIA). Extracellular HBV DNA was extracted by MagNA Pure 96 system (Roche) and then determined by quantitative PCR with the following primers and probe: […]
HBsAg IC50 and HBV DNA IC50 values were derived from the dose-response curve using 4 parameter logistic curve fit method. The compounds of formula (I) have HBsAg IC50<20 μM, particularly <1 μM; and HBV DNA IC50<50 μM. Test results of the compounds of this invention as well as the reference compounds in Cryopreserved PHH assay are given in Table 2 and Table 3.

Where [3] appears, read: Hepatitis B virus, HepDES19, 120 h, read-out: IC50 (HBeAg) in HepDES19 primary screen assay, HepDES19 cells, 5 days incubation with compound, HBeAg by ELISA.
[4] abbreviates: Hepatitis B virus, Hepatocyte, 216 h.
[5] abbreviates: read-out: IC50 (HBeAg) in HepDES19 primary screen assay, HepDES19 cells, 5 days incubation with compound, HBeAg by ELISA.

Read-outs that look alike come from different tables or passages of the source.

In the case of `COc1ccc(Cl)c2oc(-c3ccc(OCCO[C@H]4C[C@@H](C(=O)O)C4)cc3)cc(=O)c12` [Example 25, Cis-3-[2-[4-(8-chloro-5-methoxy-4-oxo-chromen-2-yl)phenoxy]ethoxy]cyclobutanecarboxylic acid], the IC50 turned out to be 1050 nM in experiment [1] (setting [3]) and 930 nM in experiment [2] (setting [4]).

With `O=C(O)C1CC(OCCOc2ccc(-c3cc(=O)c4cccc(Cl)c4s3)cc2)C1` (stereo not shown) [Example 57, 3-[2-[4-(8-chloro-4-oxo-thiochromen-2-yl)phenoxy]ethoxy]cyclobutanecarboxylic acid], the IC50 in experiment [1] (setting [3]) was determined as 90 nM; in experiment [2] (setting [4]), 140 nM.

Regarding `O=c1cc(-c2ccc(OCCO[C@H]3C[C@@H](C(=O)O)C3)c(Cl)c2)oc2c(Cl)cccc12` [Example 43, Cis-3-[2-[2-chloro-4-(8-chloro-4-oxo-chromen-2-yl)phenoxy]ethoxy]cyclobutanecarboxylic acid], the IC50 in experiment [1] (setting [3]) amounted to 250 nM; in experiment [2] (setting [4]) it was 220 nM.

With `O=c1cc(-c2ccc(OCCO[C@H]3C[C@@H](C(=O)O)C3)cc2)oc2c(Br)cccc12` [Example 33, Cis-3-[2-[4-(8-bromo-4-oxo-chromen-2-yl)phenoxy]ethoxy]cyclobutanecarboxylic acid], the IC50 is 310 nM in experiment [1] (setting [3]) and 680 nM in experiment [2] (setting [4]).

For the molecule `O=C(O)C1CC(OCCOc2ccc(-c3cc(=O)c4cc(C(F)(F)F)cc(Cl)c4o3)cc2)C1` (single isomer, unassigned) [Example 66-B, 3-[2-[4-[8-chloro-4-oxo-6-(trifluoromethyl)chromen-2-yl]phenoxy]ethoxy]cyclobutanecarboxylic acid], the IC50 in experiment [1] (setting [3]) was determined as 13200 nM; in experiment [2] (setting [4]) it was 4780 nM.

Regarding `O=C(O)C1CC(OCCOc2ccc(-c3oc4c(Cl)cc(F)cc4c(=O)c3OC(F)(F)F)cc2)C1` (stereo not shown) [Example 63, 3-[2-[4-[8-chloro-6-fluoro-4-oxo-3-(trifluoromethoxy)chromen-2-yl]phenoxy]ethoxy]cyclobutanecarboxylic acid], the IC50 in experiment [1] (setting [3]) amounted to 1810 nM; in experiment [2] (setting [4]), 5360 nM.

`O=c1c(O)c(-c2ccc(OCCO[C@H]3C[C@@H](C(=O)O)C3)cc2)oc2c(Cl)cccc12` [Example 55, Cis-3-[2-[4-(8-chloro-3-hydroxy-4-oxo-chromen-2-yl)phenoxy]ethoxy]cyclobutanecarboxylic acid]: the half-inhibitory concentration (IC50) in experiment [1] (setting [3]) was determined as 120 nM; in experiment [2] (setting [4]), 9500 nM.

Take `Cc1cc(-c2cc(=O)c3cccc(Cl)c3o2)ccc1OCCOC1CC(C(=O)O)C1` (stereo not shown) [Example 47, 3-[2-[4-(8-chloro-4-oxo-chromen-2-yl)-2-methyl-phenoxy]ethoxy]cyclobutanecarboxylic acid]: the IC50 in experiment [1] (setting [3]) came to 40 nM; in experiment [2] (setting [4]) it was 240 nM.

`COc1ccc(-c2cc(=O)c3cc(OC)ccc3o2)cc1` [Example F-1, 6,4′-dimethoxyflavone, reference compound]: the figures for the IC50 in experiment [1] (setting [3]) and in experiment [2] (setting [4]) were above 50000 nM and 61700 nM, respectively.

`O=C(O)C1CC(OCCOc2ccc(-c3cc(=O)c4ccc(C(F)(F)F)c(Cl)c4o3)cc2)C1` (stereo not shown) [Example 69, 3-[2-[4-[8-chloro-4-oxo-7-(trifluoromethyl)chromen-2-yl]phenoxy]ethoxy]cyclobutanecarboxylic acid]: the values for the IC50 in experiment [1] (setting [3]) and in experiment [2] (setting [4]) were 10700 nM and 2010 nM, respectively.

Consider `O=c1cc(-c2ccc(OCCO[C@H]3C[C@@H](C(=O)O)C3)nc2)oc2c(Cl)cccc12` (single isomer, unassigned) [Example 38-A, 3-[2-[[5-(8-chloro-4-oxo-chromen-2-yl)-2-pyridyl]oxy]ethoxy]cyclobutanecarboxylic acid], for which the concentration for half-maximal inhibition (IC50) in experiment [1] (setting [5]) stood at 5290 nM; in experiment [2] (setting [4]) it was 460 nM.

For `O=C(O)c1cccc(OCC(O)COc2ccc(-c3cc(=O)c4cccc(Cl)c4o3)cc2)c1` (stereo not shown) [Example 14, 3-[3-[4-(8-chloro-4-oxo-chromen-2-yl)phenoxy]-2-hydroxy-propoxy]benzoic acid], the IC50 was determined as 20400 nM in experiment [1] (setting [3]) and 19200 nM in experiment [2] (setting [4]).

With `COC(=O)C1CC(OCCOc2ccc(-c3oc4c(Cl)cc(F)cc4c(=O)c3OC(F)(F)F)cc2)C1` (single isomer, unassigned) [Example 62-A, methyl 3-[2-[4-[8-chloro-6-fluoro-4-oxo-3-(trifluoromethoxy)chromen-2-yl]phenoxy]ethoxy]cyclobutanecarboxylate], the IC50 came out at 1010 nM in experiment [1] (setting [3]) and 4220 nM in experiment [2] (setting [4]).

Turning to `COc1ccc(-c2cc(=O)c3ccccc3o2)cc1` [Example F-2, 4′-methoxyflavone, reference compound], the values for the half-maximal inhibitory concentration (IC50) in experiment [1] (setting [3]) and in experiment [2] (setting [4]) were 16300 nM and 46500 nM, respectively.

Regarding `O=c1cc(-c2ccc(OCCO[C@H]3C[C@@H](C(=O)O)C3)nc2)oc2c(Cl)cccc12` (single isomer, unassigned) [Example 38-B, 3-[2-[[5-(8-chloro-4-oxo-chromen-2-yl)-2-pyridyl]oxy]ethoxy]cyclobutanecarboxylic acid], the IC50 in experiment [1] (setting [5]) was 760 nM; in experiment [2] it was 880 nM.

Regarding `O=c1cc(-c2ccc(OCCO[C@H]3C[C@@H](C(=O)O)C3)cc2)oc2c(Cl)ccc(O)c12` [Example 24, Cis-3-[2-[4-(8-chloro-5-hydroxy-4-oxo-chromen-2-yl)phenoxy]ethoxy]cyclobutanecarboxylic acid], the IC50 in experiment [1] (setting [3]) worked out at 1140 nM; in experiment [2] (setting [4]) it was 4830 nM.

Turning to `O=C(O)C1CC(OCCOc2ccc(-c3oc4c(Cl)cccc4c(=O)c3Cl)cc2)C1` (stereo not shown) [Example 53, 3-[2-[4-(3,8-dichloro-4-oxo-chromen-2-yl)phenoxy]ethoxy]cyclobutanecarboxylic acid], the values for the 50% inhibitory concentration (IC50) in experiment [1] (setting [3]) and in experiment [2] (setting [4]) were 22000 nM and 4010 nM, respectively.

The values are drawn from patent US12012390B2, “Flavone compounds for the treatment and prophylaxis of hepatitis B virus disease” (priority 2018, dated 2024).
